Reference: ChEMBL document CHEMBL1131835, “Synthesis and biological evaluation of conformationally restricted Gabapentin analogues” (Bioorg Med Chem Lett, 1999)

Experiment: Displacement of [3H]gabapentin from alpha2-delta subunit of calcium channel

Q: For `O=C(O)[C@@H]1CNCC12CCCCC2`, which IC50 is on record?
A: The IC50 was greater than 10000 nM.

Q: For `O=C(O)C1NCC12CCCCC2` (configuration not stated), which IC50 is on record?
A: The IC50 was 1500 nM.

Q: Which IC50 does the source give for `O=C(O)C1CCNCC12CCCCC2` (configuration not stated) here?
A: The IC50 was greater than 10000 nM.

Q: For `O=C(O)[C@H]1CNCC12CCCCC2`, which IC50 is on record?
A: Its IC50 is 120 nM.

Q: Which IC50 does the source give for `O=C(O)C[C@]12CCCC[C@H]1NC2` here?
A: The IC50 was greater than 10000 nM.

Q: For `O=C(O)C[C@]12CCCC[C@H]1CNC2`, which IC50 is on record?
A: Its IC50 is greater than 10000 nM.
